pEC50: −log10 of the molar value. Marks after values point to notes of the source that are not given here.
Experiments:
FL-SMN2 mRNA = experiment: qPCR of FL-SMN2 transcripts in SMA type II fibroblasts (GM03813); assay type: cell-based, human; conditions: 24 h, 50% total FL-SMN2 mRNA increase, normalized to GAPDH, 95% CI in brackets
Procedure: (§1) GM03813 fibroblasts, GM24468-derived MNs, NRK-49F, MDCK, CV-1, or NCMDF cells were plated at a density of 0.5 or 1.5 × 10^4, 4 × 10^4, 5 × 10^3, 5 × 10^3, 8 × 10^3, or 6 × 10^3 cells/well on 96-well plates, respectively. After approximately 6 h, the medium was added with the same volume of culture medium containing each compound at the concentration of 0.06, 0.2, 0.6, 0.2, and 6 µM. The final concentration of DMSO was adjusted to 0.1% in culture condition.
(§2) All cells were treated with above compounds for 24 h and washed once with Dulbecco’s Phosphate-Buffered Saline without Ca and Mg [D-PBS (–)] (Wako or Nakarai Tesque). In case of using GM03813 or GM24468-derived MNs, cell lysis and reverse transcription were carried out using SuperPrep Cell Lysis & RT Kit for qPCR in accordance with manufacturer’s recommendations (Toyobo, Japan). qPCR was performed using THUNDERBIRD Probe qPCR Mix (Toyobo). The final concentrations of primers and probes were adjusted to 0.4 µM and 0.15 µM, respectively (Supplementary Table 1). Cycle conditions were as follows; 95 °C for 1 min; followed by 40 cycles of denaturation at 95 °C for 15 s; annealing and elongation at 60 °C for 1 min in the ViiA7 RT-PCR system (Thermo Fisher Scientific). The copy numbers of each target were normalized to those of GAPDH.

FOXM1b = experiment: qPCR of FOXM1b/c variant in GM03813 fibroblasts; assay type: cell-based, human
Procedure: as §1, §2

FOXM1ΔC = experiment: qPCR of FOXM1ΔC variant in GM03813 fibroblasts; assay type: cell-based, human; conditions: 24 h, 300% total target mRNA increase, 95% CI in brackets
Procedure: as §1, §2

FOXM1a = experiment: qPCR of FOXM1a variant in GM03813 fibroblasts; assay type: cell-based, human; conditions: 24 h, 200% total target mRNA increase, 95% CI in brackets
Procedure: as §1, §2

FOXM1 = experiment: qPCR of FOXM1 transcripts in cynomolgus monkey fibroblasts (NCMDF); assay type: cell-based; conditions: 24 h
Procedure: as §1
In the instances of using NRK-49F, MDCK, CV-1 or NCMDF, cell lysis and reverse transcription were carried out using Custom Cells to CT Lysis Components (Ambion) and Cells-to-CT RT Components (Ambion), each in accordance with manufacturer’s recommendations. qPCR was conducted using TaqMan Fast Advanced Master Mix. The final concentrations of primers and probes were adjusted to 0.4 µM and 0.15 µM, respectively. Cycle conditions were as follows; 50 °C for 2 min and 95 °C for 2 s; followed by 40 cycles of denaturation at 95 °C for 1 s; annealing and elongation at 60 °C for 20 s in the ABI7900HT RT-PCR system (Applied Biosystems, USA). The relative quantification in gene expression was determined using the 2−ΔΔCt method.

[1] = design: method as in PMID 30044619; conditions: in vitro and in vivo; cited from earlier work
[2] = design: method as in PMID 30302786; conditions: Phase I clinical trial, 18 mg/individual; cited from earlier work
cynomolgus monkeys = conditions: cynomolgus monkey, in vivo; cited from earlier work
TK6 cells = conditions: positive control 6 µg/mL (21 µM), 3 h + S9 mix
Procedure: These articles have been recommended for use in the OECD test guideline (Test No. 487)[49]. For metabolic activation, pre-cultured TK6 cells with the culture medium were supplemented with Sprague–Dawley rat liver mix (S9 mix, IEDA TRADING CORPORATION, Japan) at 3.33 vol%. Then, compound was mixed with the cell suspension and treated under the following treatment conditions: • Short-term treatment for 3 h without S9 mix, followed by a 21-h culture (−S9 mix assay), • Short-term treatment for 3 h with S9 mix, followed by a 21-h culture (+S9 mix assay), or • Continuous treatment for 24 h without S9 mix (24-h assay). For treatment conditions 1 and 2, the cells in each well were centrifuged after the 3-h treatment, the supernatants were discarded, and the cells were washed twice with culture medium. The cells were further cultured with fresh culture medium for 21 h. The compound-treated cells were examined by the unaided eye for precipitation of compound at the start and end of treatment. After treatment, the rest of each cell suspension was centrifuged and then the cells were suspended in a 0.075 mol/L KCl solution at room temperature for 10 min. Then, 25 vol% acetic acid containing methanol was added and the centrifuged cells were fixed. The fixed cells were resuspended in a small amount of 3 vol% acetic acid containing methanol, which was changed two times by centrifugation. Finally, a drop of the cell suspension was transferred onto a slide and dried at room temperature. The slides were stained at room temperature in a 3 vol% Giemsa solution (Merck KGaA) diluted with Sörensen phosphate buffer (1/15 mol/L, pH 6.8, Muto Pure Chemicals Co. Ltd.). Four slides per dose (2 slides per well) were prepared. Each slide was coded randomly. The test was conducted at the following doses of TEC-1. -S9 mix assay: 1.5, 1.7, 1.9, 2.1, 2.3, 2.5, 2.7, 2.9, and 3.1 µg/mL, + S9 mix assay: 1.9, 2.1, 2.3, 2.5, 2.7, 2.9, 3.1, 3.3, and 3.5 µg/mL, 24-h assay: 0.9, 1.1, 1.3, 1.5, 1.7, 1.9, 2.1, 2.3, and 2.5 µg/mL. To perform scoring for compound and negative control groups, the number of cells in the suspensions was counted using a Coulter Counter (Z2; Beckman Coulter, Inc.). The positive control groups were not determined. A portion (0.5 mL) of the cell suspension was diluted with 20 mL of Isoton II, and 0.5 mL of this solution was used for cell counts. The cell number per 1 mL at each culture was calculated by the following formula. Cellnumber/mL=Dilutionfactor×valueof1stcount+valueof2ndcount/2×2
The population doubling (PD) and relative population doubling (RPD) at each concentration was calculated by the following formula. PD=log10cell number at the end of culture/cell number at the start of treatment∗/log102∗:1×10^5cells/mL.
RPD%=PD of the compound-treated group/PD of the negative control group×100 For the treated groups, the 3 consecutive concentrations were selected as follows. […] For all concentrations, 4000 mononuclear cells with cytoplasm were analyzed and the number of cells with micronucleus (micronuclei) was counted using a microscope (× 600). Micronucleus is identified as a round or oval small nucleus in the cytoplasm with the same staining intensity as the main nucleus. The diameter of each micronucleus should be less than 1/2 of the diameter of the main nucleus. Two investigators observed the slides. Each investigator scored 1000 cells for the frequency of micronucleated cells. Data from the two investigators were combined for each culture and the combined data from duplicate cultures were pooled for each concentration for each treatment condition. A cell having one or more micronuclei was recorded as a micronucleated cell.

Compound | EC1.5× FL-SMN2 (FL-SMN2 mRNA) | Selectivity FOXM1b /FL-SMN2 (FOXM1b; EC50 of FOXM1b divided by EC1.5× of FL-SMN2) | pEC50 (FOXM1b; Homo sapiens, Fibroblast, GM03813 fibroblasts, 24 h, 50% total target mRNA reduction, 95% CI in brackets) | EC4.0× FOXM1ΔC (FOXM1ΔC) | EC3.0× FOXM1a (FOXM1a) | FOXM1 splicing in cynomolgus monkey cells (FOXM1) | micronucleus induction [1] | exposure cap, AUC0–24h in plasma [2] | findings in 39-week toxicological study (cynomolgus monkeys) | Micronucleated cells Well 1 (TK6 cells) | Micronucleated cells Well 2 (TK6 cells) | Micronucleated cells Total (TK6 cells; counted in 4000 cells) | Micronucleated cells (%) (TK6 cells; p < 0.01)
Cc1cn2nc(-c3cc(=O)n4cc(N5CCNC6(CC6)C5)ccc4n3)cc(C)c2n1 [Risdiplam] | 15.8 (8.81–32.8) nM | 8 | 6.91 | 38.9 (6.98–85.0) nM | 24.2 (4.49–78.5) nM | FOXM1 mis-splicing was similarly observed | induces micronucleation in vitro and in vivo | 1500 ng·h/mL | pathological intestinal and pancreatic changes, and irreversible retinal degeneration |  |  |  | 
O=P1(N(CCCl)CCCl)NCCCO1 (stereo not shown) [CP, cyclophosphamide, reference compound] |  |  |  |  |  |  |  |  |  | 39 | 46 | 85 | (2.13) ** %

— PMC7562719, “Discovery of a CNS penetrant small molecule SMN2 splicing modulator with improved tolerability for spinal muscular atrophy” (Scientific Reports, 2020)
